Measurements reported in patent US20220323494A1, “Novel Control Switch” (GlaxoSmithKline Intellectual Property Development Limited, priority 2018, published 2022).

B1: Construct 14: conventional single chain CAR (SEQ ID NO: 52) that uses components from CONSTRUCT 10 (protein)
chain: MALPVTALLLPLALLLHAARPQVQLVQSGAEVKKPGSSVKVSCKGSGYTFTNYWMHWVRQAPGQGLEWIGATYRGHSDTYYNQKFKGRATLTADTSTSTAYMELSSLRSEDTAVYYCTRGAIYDGYDVLDNWGQGTLVTVSSGGGGSGGGGSGGGGSGGGGSDIQMTQSPSSLSASVGDRVTITCSASQDISNYLNWYQQKPGKAPKLLIYYTSNLHSGVPSRFSGSGSGTDFTLTISSLQPEDFATYYCQQYRKLPWTFGQGTKLEIKRFVPVFLPAKPTTTPAPRPPTPAPTIASQPLSLRPEACRPAAGGAVHTRGLDFACDIYIWAPLAGTCGVLLLSLVITLYCNHRNKRGRKKLLYIFKQPFMRPVQTTQEEDGCSCRFPEEEEGGCELRVKFSRSADAPAYQQGQNQLYNELNLGRREEYDVLDKRRGRDPEMGGKPRRKNPQEGLYNELQKDKMAEAYSEIGMKGERRRGKGHDGLYQGLSTATKDTYDALHMQALPPR
modifications: Construct 14 amino acid sequence

Key:
[1] = test system: NFAT promoter in Jurkat cells; test: NFAT-luciferase assay in Jurkat cells transfected with CAR constructs, co-cultured with ARH-77-10B5 cells; format: cell-based; details: 3 μM BI224436, 48 hours
Procedure: NFAT-luc2 Jurkat cells (Promega) were cultured in Jurkat media: RPMI medium 1640 (1×) without L-glutamine with phenol red (Gibco), 10% (v/v) Fetal Bovine Serum (FBS) Heat-Inactivated (Gibco), 1% (v/v) Minimum essential medium non-essential amino acids (MEM NEAA) (ThermoFisher), 1% (v/v) Sodium Pyruvate (Sigma), 1% (v/v) L-Glutamine (Gibco). ARH-77-10B5 cells were cultured in Jurkat media plus 1 mg/mL G418 (Thermo, 10131035). Cells were incubated at 37° C. with 5% CO2 for 48 hours. 20 μg of plasmid DNA from each construct was mixed with 8×10^6 NFAT-luc2 Jurkat cells and cells were transfected using the 4D-Nucleofector (Lonza) with cell Line SE Nucleofector kit (Lonza) by following manufacturer instructions with program CL-120. BI224436 compound (Chemexpress HY-18595) at a stock concentration of 100 mM in 100% DMSO (Sigma, D2650) was diluted in Jurkat media to achieve a stock concentration of 100 μM. Using the 100 μM BI224436 stock in Jurkat media, NFAT-luc2 Jurkat cells were incubated at a final compound concentration of 3 μM for 48 hours at 37° C. with 5% CO2. NFAT-luc2 Jurkat cells were then co-cultured (1×10^5 cells per well, 1:1 effector:target ratio) with ARH-77-10B5 cells (BCMA positive cells) for 6.5 hours. NFAT-luciferase luminescence was measured by using the Bio-Glo Luciferase Assay System (Promega G7940) (following manufacturer's instructions) and an EnSpire Multimode Plate Reader (Perkin Elmer).

[2] = Plasma concentration of BI224436 in human subjects (clinical trial NCT01276990); format: in vivo; details: plasma 24 hours after 200 mg oral doses; IC50 is lower
K562 BCMA cells = test: Flow cytometry cytotoxicity assay, BCMA-positive target cells; format: cell-based; details: for Effect of BI224436 on cytotoxicity: 10 μM BI224436
Procedure: (§1) Isolation and transduction of CD4+ and CD8+ T-cells: Peripheral blood mononuclear cells (PBMCs) from the fresh blood of one healthy human donor was isolated by density gradient centrifugation in Accuspin tubes (Sigma) containing 15 mL of Histopaque-1077 (Sigma) and following manufacturer's instructions. CD4+ and CD8+ T cells were isolated using CD4 and CD8 microbeads (Miltenyi Biotec) and the AutoMACS Pro-separator (Miltenyi Biotec). Cells were resuspended at 1×10^6 cells/mL in TEXMacs media (Miltenyi Biotec) containing 100 units/mL of IL-7 (Sigma), 100 units/mL of IL-15 (Sigma) and TransAct beads (Miltenyi Biotec) and incubated for 48 hours at 37° C. with 5% CO2.
T-cells were transduced with lentiviral vectors encoding for CONSTRUCT 14 or CONSTRUCT 10. Transduced T-cells and untransduced (UT) T-cells were cultured in TEXMacs media (Miltenyi Biotec) with 100 units/mL of IL-7 (Sigma) and IL-15 (Sigma), and fresh media was added every 3 days. […] 1×10^5 of each T-cell population was stained with AlexaFluor 647 conjugated BCMA-Fc (generated in-house) to label theanti-BCMA scFv on the CARs. Measurements were made using a Cytoflex S (Beckman Coulter) and data analysed using FlowJo (FlowJo).
K562 BCMA cells (BCMA positive) were cultured in Jurkat media plus 0.8 mg/mL G418 (Gibco) and K562 cells (BCMA negative) were cultured in Jurkat media. Both cell lines were cultured at 37° C. with 5% CO2. BI224436 compound at a stock concentration of 100 mM in 100% DMSO (Sigma) was diluted in Jurkat media to achieve a stock concentration of 100 μM. K562 cells were stained with Cell Trace Far Red (0.5 μM, ThermoFisher) and K562 BCMA cells were stained with Cell Trace Violet (2.5 μM, ThermoFisher). […] 50 μL of each well was analysed on a Cytoflex S (Beckman Coulter) and data was analysed using FlowJo (FlowJo). The percentage of surviving K562 and K562 BCMA cells was calculated by dividing the number of K562 and K562 BCMA cells in each condition by the number of K562 and K562 BCMA cells found following co-culture with UT T-cells in 0 μM BI224436.

ARH-77-10B5 cells = test: xCelligence cytotoxicity assay; format: cell-based; details: T-cells transduced with Construct 10; 10 μM BI224436
Procedure: Transduction of primary T-cells: Method described in Example 5
xCelligence cytotoxicity assay ARH-77-10B5 cells were as described in Example 1. BI224436 compound at a stock concentration of 100 mM in 100% DMSO was diluted in Jurkat media to achieve a stock concentration of 100 μM. xCelligence E-plates (ACEA, 06472460001) were coated with anti-CD40 tethering agent by following manufacturer's instructions for B-cell Killing (anti-CD40) Assay kit (ACEA, 8100004). Plates were inserted into the xCelligence station (ACEA) (37° C., 5% CO2) and allowed to equilibrate to 37° C. for 1 hour prior to taking background measurement. ARH-77-10B5 cells or Jurkat media were added to the plates (1×10^4 cells per well) and cultured for 20 h. Each T-cell population was incubated at a final concentration of 10 μM or 0 μM BI224436 in Jurkat media for 1 hour at 37° C. with 5% CO2. T-cells were added to the plates (1×10^4 cells per well, 1:1 effector:target ratio) and incubated in the xCelligence station for 24 hours. Data analysis was carried out using xCELLigence Immunotherapy Software (ACEA). The cell index for samples was normalized to the point of T-cell addition, then the normalized cell index for T-cells was divided by the normalized cell index of target cells alone to give the % viable cells at a given timepoint.

[3] = test system: primary T-cells transduced with the HIV Integrase LEDGF/p75 OFF-CAR; test: Cytokine release by primary T-cells transduced with OFF-switch CAR (Example 5); format: cell-based, human; details: T-cells transduced with Construct 10 and 11; 10 μM, ARH-77-10B5, 24 hour
Procedure: Primary T-cell transduction and cytokine release: Peripheral blood mononuclear cells (PBMCs) from the fresh blood of two healthy human donors were isolated by density gradient centrifugation in Accuspin tubes (Sigma) containing 15 mL of Histopaque-1077 (Sigma) and following manufacturer's instructions. Cells were resuspended at 1×10^6 cells/mL in TEXMacs media (Miltenyi Biotec) containing 100 units/mL of IL-2 (Sigma) and TransAct beads (Miltenyi Biotec) and incubated for 48 hours at 37° C. with 5% CO2.
T-cells from the two donors were transduced with the lentiviral vectors encoding for CONSTRUCT 10 and CONSTRUCT 11. Transduction reactions were prepared to achieve an MOI of 5. T-cells were cultured in TEXMacs media (Miltentyi Biotec) with 100 units/mL of IL-2, fresh media was added every 3 days. ARH-77-10B5 cells were cultured as described in Example 1. BI224436 compound at a stock concentration of 100 mM in 100% DMSO was diluted in Jurkat media to achieve a stock concentration of 100 μM. Each T-cell population was incubated at a final concentration of 10 μM or 0 μM (media alone) BI224436 in Jurkat media for 1 hour at 37° C. with 5% CO2. […] Supernatants were analysed for cytokine levels using MSD V-plex Proinflammatory Panel 1 Human Kit (MSD, K15049D-2) and MSD Sector Imager (MSD).

[4] = test system: primary T-cells transduced with the HIV Integrase LEDGF/p75 OFF-switch CAR; test: Cytokine release with titration of BI224436, primary T-cells transduced with Construct 13 (Example 6); format: cell-based, human
Procedure: Lentiviral vector production and transduction of primary T-cells: Method for lentiviral production is described in Example 4 and method for primary T-cell transduction is described in Example 5.
Cytokine release: ARH-77-10B5 cells were cultured as described in Example 1. BI224436 compound at a stock concentration of 100 mM in 100% DMSO was diluted in Jurkat media to achieve a stock concentration of 100 μM. Each T-cell population was incubated at a final concentration of 10 μM, 3.3 μM, 1.1 μM, 0.37 μM, 0.12 μM, 0.04 μM, 0.013 μM, 0.004 μM, 0.001 μM or 0 μM (media alone) BI224436 in Jurkat media for 1 hour at 37° C. with 5% CO2. T-cells were then co-cultured (5×10^4 cells per well, 1:1 effector:target ratio) with ARH-77-10B5 cells (BCMA positive cells) for 24 hours in Jurkat media at 37° C. with 5% CO2. Cells were pelleted (1200 rpm, 5 min) and supernatants were collected. Supernatants were analysed for cytokine levels using MSD V-plex Proinflammatory Panel 1 Human Kit (MSD, K15049D-2) and MSD Sector Imager (MSD).

[5] = test system: K562 cells (BCMA negative); test: Flow cytometry cytotoxicity assay, BCMA-negative target cells; format: cell-based; details: transduced primary T-cells, K562 WT, 1:1 or 4:1 effector:target, 48 hours
Procedure: as §1
T-cells were transduced with lentiviral vectors encoding for CONSTRUCT 14 or CONSTRUCT 10. […] Measurements were made using a Cytoflex S (Beckman Coulter) and data analysed using FlowJo (FlowJo).
K562 BCMA cells (BCMA positive) were cultured in Jurkat media plus 0.8 mg/mL G418 (Gibco) and K562 cells (BCMA negative) were cultured in Jurkat media. […] 50 μL of each well was analysed on a Cytoflex S (Beckman Coulter) and data was analysed using FlowJo (FlowJo). The percentage of surviving K562 and K562 BCMA cells was calculated by dividing the number of K562 and K562 BCMA cells in each condition by the number of K562 and K562 BCMA cells found following co-culture with UT T-cells in 0 μM BI224436.

IC50 concentration relative to plasma concentrations in human subjects [2] [fold] | IC50 ([4]; Homo sapiens, T-cell, primary T-cells transduced with Construct 13, stimulated with ARH-77-10B5, 24 hours, read-out: IC50 concentration for cytokine release (TNF-alpha, IL-2, IFN-gamma)) [nM] | Molecule | Effect of BI224436 on NFAT activation ([1]; Jurkat cells transfected with Construct 6) | Effect of BI224436 on NFAT activation ([1]; Jurkat cells transfected with Construct 7) | Effect of BI224436 on NFAT activation ([1]; Jurkat cells transfected with Constructs 1 to 4) | Effect of BI224436 on cytotoxicity (K562 BCMA cells; T-cells transduced with OFF-switch CAR (Construct 10)) | Effect of BI224436 on cytotoxicity (K562 BCMA cells; T-cells transduced with conventional CAR (Construct 14)) | Effect of BI224436 on cytotoxic response (ARH-77-10B5 cells) | Effect of compound on cytokine release [3] | Effect of BI224436 concentration on level of TNF-alpha, IL-2 and IFN-gamma release ([4]; primary T-cells transduced with Construct 13, 0.001-10 μM titration) | Killing of BCMA-positive cells (K562 BCMA cells; transduced primary T-cells, K562 BCMA, 1:1 or 4:1 effector:target, 48 hours) | Killing of BCMA-negative cells [5]
10 | 100 | Cc1nc2ccccc2c(-c2ccc3c4c(ccnc24)CCO3)c1[C@H](OC(C)(C)C)C(=O)O [BI224436, 3-Quinolineacetic acid, 4-(2,3-dihydropyrano[4,3,2-de]quinolin-7-yl)-α-(1,1-dimethylethoxy)-2-methyl-,(αS,4R)-] | preserved | preserved | does not reduce the level of activation | effectively attenuates | does not affect | reduced | attenuated | tunes the level |  | 
 |  | B1 |  |  |  |  |  |  |  |  | kill BCMA-positive cells | not BCMA-negative cells
